Data as given in patent publication US20090018176A1, “FUNGICIDE COMPOSITION COMPRISING AN ARYLAMIDINE DERIVATIVE AND TWO KNOWN FUNGICIDE COMPOUNDS” (Bayer CropScience AG, priority 2005, published 2009).

How the values were obtained:
Puccinia recondita = test: In vivo preventive test on Puccinia recondita f. sp. tritici (wheat brown rust); conditions: 50 g/ha of each active compound, evaluation 12 days after inoculation, 0% = control, 100% = no infection
Protocol: In Vivo Preventive Test on Puccinia Recondite f. Sp. Tritici (Wheat Brown Rust) [table] To produce a suitable preparation of active compound, 1 part by weight of active compound or active compound combination is mixed with the stated amounts of solvent and emulsifier, and the concentrate is diluted with water to the desired concentration. To test for preventive activity, young plants are […] at the stated rate of application. The plants remain for 24 hours in an incubation cabinet at 20° C. and a relative atmospheric humidity of 100%. The plants are placed in a greenhouse at a temperature of approximately 20° C. and a relative atmospheric humidity of approximately 80% to promote the development of rust pustules. Evaluation is carried out 12 days after the inoculation. 0% means an efficacy which corresponds to that of the control, whereas an efficacy of 100% means that no infection is observed. […] Compound 1 according to the invention is N-ethyl-N-methyl-N′-[4-(3-t-butyl-4-chlorphenoxy)-2,5 xylyl]-formamidine.

Pyrenophora teres = test: In vivo curative test on Pyrenophora teres (barley); conditions: 50 g/ha of each active compound, evaluation 12 days after inoculation, 0% = control, 100% = no infection
Protocol: In Vivo Curative Test on Pyrenophora Teres (Barley) [table] To produce a suitable preparation of active compound, 1 part by weight of active compound or active compound combination is mixed with the stated amounts of solvent and emulsifier, and the concentrate is diluted with water to the desired concentration. To test for curative activity, young plants are sprayed with a conidia suspension of Pyrenophora teres. The plants remain in an incubation cabinet at 20° C. and 100% relative atmospheric humidity for 48 hours. The plants are then sprayed with the preparation of active compound at the stated application rate. The plants are placed in a greenhouse at a temperature of about 20° C. and a relative atmospheric humidity of about 80%. Evaluation is carried out 12 days after the inoculation. 0% means an efficacy which corresponds to that of the control, whereas an efficacy of 100% means that no infection is observed.

| SMILES | Experimental efficacy (%) (Puccinia recondita) | Experimental efficacy (%) (Pyrenophora teres) |
| --- | --- | --- |
| CCN(C)C=Nc1cc(C)c(Oc2ccc(Cl)c(C(C)(C)C)c2)cc1C [compound 1, N-ethyl-N-methyl-N′-[4-(3-t-butyl-4-chlorphenoxy)-2,5 xylyl]-formamidine] | 22% | 0% |
| OC(Cc1ccccc1Cl)(Cn1nc[nH]c1=S)C1(Cl)CC1 (stereo not drawn) [prothioconazole] |  | 0% |
| CCCN(CC)CC1COC2(CCC(C(C)(C)C)CC2)O1 (stereo not drawn) [spriroxamine, spiroxamine] | 0% | 50% |
| CC(C)(C)C(O)(CCc1ccc(Cl)cc1)Cn1cncn1 (stereo not drawn) [tebuconazole] | 78% |  |
